# Experimental data from publication PMC6792352, “Limited Chemical Structural Diversity Found to Modulate Thyroid Hormone Receptor in the Tox21 Chemical Library” (Environmental Health Perspectives, 2019).
# Counter-ions that a name gives are not always drawn.
# Test: in vitro
# Settings: rat, gh3-tre-luc cells
SMILES,CC50 at 24 h (AC50 (uM) modified / 1000) [µM],also measured
c1ccc2sc(SNC3CCCCC3)nc2c1 [N-Cyclohexyl-2-benzothiazolesulfenamide],> 90,
CC(C)c1ccc(C#N)cc1 [4-Isopropylbenzonitrile],> 90,
C=CCCCCCCCCC=O [Undec-10-enal],> 90,
CCCCCCCN [Heptylamine],> 90,
CCN(C=O)CC [Diethylformamide],> 90,
COc1ccc(C(=O)/C(Br)=C\C(=O)O)cc1 [Cytembena],44,
O=C1CC[C@H](C(=O)N2CCCCC2)N1 [Fasoracetam],> 50,
Cc1ccc(C#N)cc1 [4-Methylbenzonitrile],> 90,
OC(CN1CCCCC1)c1cc(-c2ccccc2)on1 (stereo not drawn) [Perisoxal citrate],> 50,
COc1ccc(C(=O)c2ccc(C)cc2)c(O)c1 [Mexenone],> 90,
BrCBr [Dibromomethane],> 90,
NCCNC(=O)c1ccc(Cl)cn1 [Lazabemide hydrochloride],> 50,
CO/N=C(\C(=O)N[C@@H]1C(=O)N2C(C(=O)O)=C(Cn3ccc(=N)n3CCO)CS[C@H]12)c1csc(N)n1 [Cefoselis sulfate],> 50,
CCC1C(C)=NN=C(c2ccc(OC)c(OC)c2)c2cc(OC)c(OC)cc21 (stereo not drawn) [Tofisopam],> 50,
Nc1ccc(N=Nc2ccccc2)c(N)c1 [C.I. Basic Orange 2],64.1,
CC(C)(C)C1CCCCC1=O (stereo not drawn) [2-tert-Butylcyclohexanone],> 90,
Cc1ccc([N+](=O)[O-])cc1S(=O)(=O)O [2-Methyl-5-nitrobenzenesulfonic acid],> 90,
CC(=O)O[C@H]1C[C@@H]2CC[C@@H]3[C@H](CC[C@@]4(C)[C@H]3C[C@H](N3CC[N+](C)(C)CC3)[C@@H]4OC(C)=O)[C@@]2(C)C[C@@H]1N1CC[N+](C)(C)CC1 [Pipecuronium bromide],> 50,
Fc1c(F)c(F)c(Br)c(F)c1F [Bromopentafluorobenzene],> 90,
CO[C@@]12[C@H](COC(N)=O)C3=C(C(=O)C(C)=C(N)C3=O)N1C[C@@H]1N[C@@H]12 [Mitomycin C],2.52,
N#Cc1ccc(C(=O)O)cc1 [4-Cyanobenzoic acid],> 90,
"Clc1ccc(C(c2ccc(Cl)cc2)C(Cl)(Cl)Cl)cc1 [p,p'-DDT]",,"CC50 at 24 h (AC50 (uM) modified / 1000, Tox21_110001=Tox21_111076, viability, 1 nM T3 present, 24 h): 19.5 µM; CC50 at 24 h (AC50 (uM) modified / 1000, Tox21_110001=Tox21_201495, viability, 1 nM T3 present, 24 h): 44.8 µM; CC50 at 24 h (AC50 (uM) modified / 1000, Tox21_110001=Tox21_300067, viability, 1 nM T3 present, 24 h): 28.7 µM"
Cc1ccc(C(N)=O)cc1N [3-Amino-4-methylbenzamide],> 90,
"Cc1ccccc1NC(=N)Nc1ccccc1C [1,3-Bis(2-methylphenyl)guanidine]",> 90,

SMILES,CC50 at 24 h (AC50 (uM) modified / 1000) [µM],also measured
C=CCOc1c(Br)cc(C(C)(C)c2cc(Br)c(OCC=C)c(Br)c2)cc1Br [Tetrabromobisphenol A diallyl ether],> 50,
CN(C)CCOC(C)(c1ccccc1)c1ccccn1 (stereo not drawn) [Doxylamine succinate],> 50,
CCOP(=O)(OCC)O/C(=C\Cl)c1ccc(Cl)cc1Cl [Chlorfenvinphos],,"CC50 at 24 h (AC50 (uM) modified / 1000, Tox21_110001=Tox21_112069, viability, 1 nM T3 present, 24 h): > 50 µM; CC50 at 24 h (AC50 (uM) modified / 1000, Tox21_110001=Tox21_301573, viability, 1 nM T3 present, 24 h): > 90 µM"
CCc1nnc(NS(=O)(=O)c2ccc(N)cc2)s1 [Sulfaethidole],> 50,
"Oc1nc2ccc(Cl)cc2o1 [6-Chloro-2,3-dihydrobenzoxazol-2-one]",> 90,
Cc1ccc(N)nc1 [5-Methylpyridin-2-amine],> 90,
"COc1cc(CC(C)N)c(OC)cc1Br (stereo not drawn) [4-Bromo-2,5-dimethoxyamphetamine hydrochloride]",40.8,
O=C1CCCCCN1 [Caprolactam],> 90,
CCCCCCOC(=O)c1ccccc1O [Hexyl salicylate],> 90,
Cc1cccc(NC(=S)N(C)C)c1 [Methiuron],> 90,
CC(C)COC(=O)OCN1C(=O)CN(CCN2CC(=O)N(COC(=O)OCC(C)C)C(=O)C2)CC1=O [Sobuzoxane],> 50,
C=C1CC/C=C(\C)CC[C@@H]2[C@@H]1CC2(C)C [beta-Caryophyllene],> 90,
Cc1noc(NS(=O)(=O)c2ccc(N)cc2)c1C [Sulfisoxazole],> 50,
"FC(F)(F)C(F)(F)C(F)(F)C(F)(F)C(F)(F)C(F)(F)CCI [1H,1H,2H,2H-Perfluorooctyl iodide]",> 50,
O=C(NN1CCCC1)NS(=O)(=O)c1ccc(Cl)cc1 [Glyclopyramide],> 50,
c1ccc(C[n+]2cccc3ccccc32)cc1 [1-Benzylquinolinium chloride],> 90,
C=CCc1ccc(OC)c(OC)c1 [Methyleugenol],> 90,
CCCCCCOC(=O)c1ccccc1C(=O)OCCCCCC [Dihexyl phthalate],> 90,
O=C(O)CCCCC1CCSS1 (stereo not drawn) [alpha-Lipoic acid],> 90,
"ClCCCCl [1,3-Dichloropropane]",,"CC50 at 24 h (AC50 (uM) modified / 1000, Tox21_110001=Tox21_201140, viability, 1 nM T3 present, 24 h): > 100 µM"
CCCCCCC#N [Heptanenitrile],,"CC50 at 24 h (AC50 (uM) modified / 1000, Tox21_110001=Tox21_200526, viability, 1 nM T3 present, 24 h): > 90 µM"
CN1C[C@@H]2C[C@H]1CN2c1cc2c(cc1F)c(=O)c(C(=O)O)cn2C1CC1 [Danofloxacin],> 50,
CCOC(=O)C1=C(COCCN)NC(C)=C(C(=O)OC)C1c1ccccc1Cl (stereo not drawn) [Amlodipine besylate],19.7,
CCCCCCCCC=O [Nonanal],> 90,

SMILES,CC50 at 24 h (AC50 (uM) modified / 1000) [µM],also measured
"OCCCCCO [1,5-Pentanediol]",> 100,
CCCCN(CCC(=O)OCC)C(C)=O [Ethyl 3-(N-butylacetamido)propionate],> 90,
"COc1cc(-c2ccc(N=C=O)c(OC)c2)ccc1N=C=O [3,3'-Dimethoxybenzidine-4,4'-diisocyanate]",> 50,
O=C(O)c1ccc2c(c1)C(=O)OC2=O [Trimellitic anhydride],> 90,
"O=[N+]([O-])c1ccc(O)c([N+](=O)[O-])c1 [2,4-Dinitrophenol]",,"CC50 at 24 h (AC50 (uM) modified / 1000, Tox21_110001=Tox21_201462, viability, 1 nM T3 present, 24 h): > 90 µM; CC50 at 24 h (AC50 (uM) modified / 1000, Tox21_110001=Tox21_300030, viability, 1 nM T3 present, 24 h): 56.2 µM"
CCOCC(O)COc1ccc(NC(=O)CC[S+](C)C)cc1 (stereo not drawn) [Suplatast tosylate],> 50,
CC(C)(C)NCC(O)COc1cccc2c1CCC(=O)N2 (stereo not drawn) [Carteolol hydrochloride],> 20,
Cc1ccccc1Cl [2-Chlorotoluene],> 90,
"CCCCOCCOCCOCCOCCO [3,6,9,12-Tetraoxahexadecan-1-ol]",> 90,
CCn1cc(C(=O)O)c(=O)c2cc3c(cc21)OCO3 [Oxolinic acid],> 90,
O=C(O)c1ccc[n+]([O-])c1 [Nicotinic acid 1-oxide],> 50,
CC[C@H]1OC(=O)[C@H](C)C(=O)[C@H](C)[C@@H](O[C@@H]2O[C@H](C)C[C@H](N(C)C)[C@H]2O)[C@](C)(OC)C[C@@H](C)C(=O)[C@H](C)[C@H]2N(CCCCn3cnc(-c4cccnc4)c3)C(=O)O[C@]12C [Telithromycin],> 50,
O=P1(N(CCCl)CCCl)NCCCO1 (stereo not drawn) [Cyclophosphamide monohydrate],> 90,
Cc1ccc(S(=O)(=O)N[C@@H](CCCCN)C(=O)CCl)cc1 [N-alpha-p-Tosyl-L-lysine chloromethyl ketone hydrochloride],15,
CCNC(=O)[C@@H]1CCCN1C(=O)[C@H](CCCN=C(N)N)NC(=O)[C@H](CC(C)C)NC(=O)[C@@H](Cc1c[nH]c2ccccc12)NC(=O)[C@H](Cc1ccc(O)cc1)NC(=O)[C@H](CO)NC(=O)[C@H](Cc1c[nH]c2ccccc12)NC(=O)[C@H](Cc1cnc[nH]1)NC(=O)[C@@H]1CCC(=O)N1 [Deslorelin acetate],1.89,
Cc1ccc(O)c(-n2nc3ccccc3n2)c1 [2-(2H-Benzotriazol-2-yl)-4-methylphenol],> 90,
Nc1cc(Cl)cc(C(=O)O)c1Cl [Chloramben],> 90,
Cl/C=C\C[N+]12CN3CN(CN(C3)C1)C2 [Chloroallyl methenamine chloride],> 90,
"O=[N+]([O-])C1(Br)COCOC1 [5-Bromo-5-nitro-1,3-dioxane]",11.8,
COC(=O)Nc1ccc(Cl)c(Cl)c1 [Swep],> 90,
CCCCOCCOCCSC#N [2-(2-Butoxyethoxy)ethyl thiocyanate],> 100,
CC(C(=O)O)c1ccc(CC2CCCC2=O)cc1 (stereo not drawn) [Loxoprofen],> 50,
Cc1coc2c1CCC(C)C2 (stereo not drawn) [Menthofuran],> 90,
